Key:
Assay type in all cases: functional
OVCAR-8 [1] = test: Cytotoxicity against human OVCAR8 cells assessed as cellular growth at 0.01 uM after 48 hrs by SRB assay relative to control
OVCAR-5 = test: Cytotoxicity against human OVCAR5 cells assessed as cellular growth at 0.01 uM after 48 hrs by SRB assay relative to control
IGROV-1 = test: Cytotoxicity against human IGROV1 cells assessed as cellular growth at 0.01 uM after 48 hrs by SRB assay relative to control
SF-539 [2] = test: Cytotoxicity against human SF539 cells assessed as cellular growth at 0.01 uM after 48 hrs by SRB assay relative to control
NCI-H522 [3] = test: Cytotoxicity against human NCI-H522 cells assessed as cellular growth at 0.01 uM after 48 hrs by SRB assay relative to control
HOP-92 = test: Cytotoxicity against human HOP92 cells assessed as cellular growth at 0.01 uM after 48 hrs by SRB assay relative to control
SR = test: Cytotoxicity against human SR cells assessed as cellular growth at 0.01 uM after 48 hrs by SRB assay relative to control
A498 = test: Cytotoxicity against human A498 cells assessed as cellular growth at 100 uM after 48 hrs by SRB assay relative to control
UACC-257 = test: Cytotoxicity against human UACC257 cells assessed as cellular growth at 100 uM after 48 hrs by SRB assay relative to control
Malme-3M = test: Cytotoxicity against human MALME-3M cells assessed as cellular growth at 100 uM after 48 hrs by SRB assay relative to control
HCT-15 [4] = test: Cytotoxicity against human HCT15 cells assessed as cellular growth at 100 uM after 48 hrs by SRB assay relative to control
MDA-MB-468 = test: Cytotoxicity against human MDA-MB-468 cells assessed as cellular growth at 10 uM after 48 hrs by SRB assay relative to control
BT-549 = test: Cytotoxicity against human BT549 cells assessed as cellular growth at 10 uM after 48 hrs by SRB assay relative to control
OVCAR-8 [5] = test: Cytotoxicity against human OVCAR8 cells assessed as cellular growth at 10 uM after 48 hrs by SRB assay relative to control
SF-539 [6] = test: Cytotoxicity against human SF539 cells assessed as cellular growth at 10 uM after 48 hrs by SRB assay relative to control
COLO 205 [7] = test: Cytotoxicity against human COLO205 cells assessed as cellular growth at 10 uM after 48 hrs by SRB assay relative to control
NCI-H460 = test: Cytotoxicity against human NCI-H460 cells assessed as cellular growth at 10 uM after 48 hrs by SRB assay relative to control
Hs-578T = test: Cytotoxicity against human Hs578T cells assessed as cellular growth at 100 uM after 48 hrs by SRB assay relative to control
OVCAR-8 [8] = test: Cytotoxicity against human OVCAR8 cells assessed as cellular growth at 1 uM after 48 hrs by SRB assay relative to control
OVCAR-3 = test: Cytotoxicity against human OVCAR3 cells assessed as cellular growth at 1 uM after 48 hrs by SRB assay relative to control
COLO 205 [9] = test: Cytotoxicity against human COLO205 cells assessed as cellular growth at 1 uM after 48 hrs by SRB assay relative to control
NCI-H23 = test: Cytotoxicity against human NCI-H23 cells assessed as cellular growth at 1 uM after 48 hrs by SRB assay relative to control
DU-145 [10] = test: Cytotoxicity against human DU145 cells after 48 hrs by SRB assay; conditions: DU-145, 48 h
ACHN = test: Cytotoxicity against human ACHN cells after 48 hrs by SRB assay
786-0 = test: Cytotoxicity against human 786-0 cells after 48 hrs by SRB assay; conditions: 786-0, 48 h
OVCAR-8 [11] = test: Cytotoxicity against human OVCAR8 cells after 48 hrs by SRB assay; conditions: OVCAR-8, 48 h
SK-MEL-5 = test: Cytotoxicity against human SK-MEL-5 cells after 48 hrs by SRB assay; conditions: SK-MEL-5, 48 h
NCI-H522 [12] = test: Cytotoxicity against human NCI-H522 cells after 48 hrs by SRB assay; conditions: NCI-H522, 48 h
A549 = test: Cytotoxicity against human A549 cells after 48 hrs by SRB assay; conditions: A549, 48 h
[13] = Cytotoxicity against human EKVX cells after 48 hrs by SRB assay
UO-31 [14] = test: Cytotoxicity against human UO31 cells assessed as cellular growth at 0.1 uM after 48 hrs by SRB assay relative to control
TK-10 = test: Cytotoxicity against human TK10 cells assessed as cellular growth at 0.1 uM after 48 hrs by SRB assay relative to control
HCT-15 [15] = test: Cytotoxicity against human HCT15 cells assessed as cellular growth at 0.1 uM after 48 hrs by SRB assay relative to control
HL-60(TB) = test: Cytotoxicity against human HL-60(TB) cells assessed as cellular growth at 0.1 uM after 48 hrs by SRB assay relative to control
DU-145 [16] = test: Cytotoxicity against human DU145 cells assessed as cellular growth at 0.01 uM after 48 hrs by SRB assay relative to control
UO-31 [17] = test: Cytotoxicity against human UO31 cells assessed as cellular growth at 0.01 uM after 48 hrs by SRB assay relative to control
[18] = read-out: LC50 (the source's name)
[19] = read-out: pLC50 (the source's name) (converted)

## CN1CCN(CCCn2c3c(sc4ncccc43)c(=O)n3nnc(-c4ccccc4)c23)CC1
OVCAR-8 [1]
  Activity: 97%
OVCAR-5
  Activity: 105%
IGROV-1
  Activity: 102%
SF-539 [2]
  Activity: 99%
NCI-H522 [3]
  Activity: 96%
HOP-92
  Activity: 99%
SR
  Activity: 100%
A498
  Activity: -92%
UACC-257
  Activity: -87%
Malme-3M
  Activity: -82%
HCT-15 [4]
  Activity: -69%
MDA-MB-468
  Activity: -94%
BT-549
  Activity: 76%
OVCAR-8 [5]
  Activity: -48.18%
SF-539 [6]
  Activity: -95.99%
COLO 205 [7]
  Activity: -82%
NCI-H460
  Activity: -70.68%
Hs-578T
  Activity: -43%
OVCAR-8 [8]
  Activity: 89%
OVCAR-3
  Activity: 96%
COLO 205 [9]
  Activity: 86%
NCI-H23
  Activity: 94%
DU-145 [10]; read-out: GI50
  GI50: 1.85 µM
DU-145 [10]; [18]
  CC50: 7.24 µM
DU-145 [10]; read-out: TGI
  TGI: 3.66 µM
DU-145 [10]; read-out: pGI50 (converted)
  GI50: 1.86 µM
DU-145 [10]; [19]
  CC50: 7.24 µM
DU-145 [10]; read-out: pTGI (converted)
  TGI: 3.63 µM
ACHN; read-out: GI50
  GI50: 1.63 µM
ACHN; [18]
  CC50: 6.79 µM
ACHN; read-out: TGI
  TGI: 3.32 µM
ACHN; read-out: pGI50 (converted)
  GI50: 1.62 µM
ACHN; [19]
  CC50: 6.76 µM
ACHN; read-out: pTGI (converted)
  TGI: 3.31 µM
786-0; read-out: GI50
  GI50: 1.87 µM
786-0; [18]
  CC50: 6.56 µM
786-0; read-out: TGI
  TGI: 3.5 µM
786-0; read-out: pGI50 (converted)
  GI50: 1.86 µM
786-0; [19]
  CC50: 6.61 µM
786-0; read-out: pTGI (converted)
  TGI: 3.47 µM
OVCAR-8 [11]; read-out: GI50
  GI50: 1.93 µM
OVCAR-8 [11]; [18]
  CC50: > 100 µM
OVCAR-8 [11]; read-out: TGI
  TGI: 4.49 µM
OVCAR-8 [11]; read-out: pGI50 (converted)
  GI50: 1.95 µM
OVCAR-8 [11]; read-out: pLC50 (converted)
  CC50: > 100 µM
OVCAR-8 [11]; read-out: pTGI (converted)
  TGI: 4.47 µM
SK-MEL-5; read-out: GI50
  GI50: 1.7 µM
SK-MEL-5; [18]
  CC50: 5.81 µM
SK-MEL-5; read-out: TGI
  TGI: 3.14 µM
SK-MEL-5; read-out: pGI50 (converted)
  GI50: 1.7 µM
SK-MEL-5; [19]
  CC50: 5.75 µM
SK-MEL-5; read-out: pTGI (converted)
  TGI: 3.16 µM
NCI-H522 [12]; read-out: GI50
  GI50: 1.92 µM
NCI-H522 [12]; read-out: TGI
  TGI: 3.7 µM
NCI-H522 [12]; read-out: pGI50 (converted)
  GI50: 1.91 µM
NCI-H522 [12]; read-out: pTGI (converted)
  TGI: 3.72 µM
A549; read-out: GI50
  GI50: 1.79 µM
A549; read-out: TGI
  TGI: 3.4 µM
A549; read-out: pGI50 (converted)
  GI50: 1.78 µM
A549; read-out: pTGI (converted)
  TGI: 3.39 µM
[13]; read-out: GI50
  GI50: 2.12 µM
[13]; [18]
  CC50: 15.7 µM
[13]; read-out: TGI
  TGI: 4.9 µM
[13]; read-out: pGI50 (converted)
  GI50: 2.14 µM
[13]; [19]
  CC50: 83.2 µM
[13]; read-out: pTGI (converted)
  TGI: 4.9 µM
UO-31 [14]
  Activity: 53%
TK-10
  Activity: 99%
HCT-15 [15]
  Activity: 91%
HL-60(TB)
  Activity: 91%
DU-145 [16]
  Activity: 97%
UO-31 [17]
  Activity: 66%

Reference: ChEMBL document CHEMBL2401728, “An unexpected Dimroth rearrangement leading to annelated thieno[3,2-d][1,2,3]triazolo[1,5-a]pyrimidines with potent antitumor activity” (Eur J Med Chem, 2013)
